Data on 48 compounds can be found in patent publication US20090163516A1, “CARBOXAMIDES FOR CONTROLLING UNDESIRED MICRO-ORGANISMS IN PLANT PROTECTION” (Bayer Cropscience AG, priority 2005, published 2009).

Each structure is given as a SMILES string.

The test system of data set [1] is Pyrenophora teres. As to the kind of experiment: Pyrenophora teres test (barley)/protective. It is filed as in vivo. Conditions: 1000 ppm; young barley plants sprayed; evaluation 8 days after inoculation. The protocol:
(§1) To produce a suitable preparation of active compound, 1 part by weight of active compound is mixed with the stated amounts of solvent and emulsifier, and the concentrate is diluted with water to the desired concentration.
To test for protective activity, young plants are sprayed with the active compound preparation at the stated application rate. After the spray coating has dried on, the plants are sprayed with a conidia suspension of Pyrenophora teres. The plants remain in an incubation cabin at 20° C. and 100% relative atmospheric humidity for 48 hours. The plants are then placed in a greenhouse at a temperature of about 20° C. and a relative atmospheric humidity of about 80%.
Evaluation is carried out 8 days after the inoculation. 0% means an efficacy which corresponds to that of the control, whereas an efficacy of 100% means that no infection is observed.

Data set [2] in a line: logP determination by HPLC on a reverse-phase column (EEC Directive 79/831 Annex V.A8). It is filed as physicochemical. Conditions: reverse-phase C18 HPLC column; pH 2.3; HPLC reverse-phase C 18, 43° C., 0.1% aqueous phosphoric acid and acetonitrile. Here is the method:
The determination is carried out in the acidic range at pH 2.3 using the mobile phases 0.1% aqueous phosphoric acid and acetonitrile; linear gradient from 10% acetonitrile to 90% acetonitrile.

The test system of data set [3] is Alternaria solani. As to the kind of experiment: Alternaria test (tomato)/protective. Conditions: 168 h, young tomato plants sprayed, inoculated one day after treatment, evaluation 7 days after inoculation, read-out: Efficacy in %. It is filed as in vivo. Here is the method: as §1
To test for protective activity, young tomato plants are sprayed with the active compound preparation at the stated application rate. One day after the treatment, the plants are inoculated with a spore suspension of Alternaria solani and then remain at 100% relative humidity and 20° C. for 24 h. The plants then remain at 96% relative atmospheric humidity and a temperature of 20° C.
(§2) Evaluation is carried out 7 days after the inoculation. 0% means an efficacy which corresponds to that of the control, whereas an efficacy of 100% means that no infection is observed.

The subject of data set [4] is Botrytis cinerea. As to the kind of experiment: Botrytis test (bean)/protective. It is filed as in vivo. Conditions: 48 h, young bean plants sprayed, size of infected areas two days after inoculation, read-out: Efficacy in %. The protocol: (§3) To produce a suitable preparation of active compound, 1 part by weight of active compound is mixed with the stated amounts of solvents and emulsifier, and the concentrate is diluted with water to the desired concentration.
To test for protective activity, young plants are sprayed with the active compound preparation at the stated application rate. After the spray coating has dried on, two small pieces of agar colonized by Botrytis cinerea are placed onto each leaf. The inoculated plants are placed in a dark chamber at about 20° C. and 100% relative atmospheric humidity.
Two days after the inoculation, the size of the infected areas on the leaves is evaluated. 0% means an efficacy which corresponds to that of the control, whereas an efficacy of 100% means that no infection is observed.

Data set [5] has as its system Venturia inaequalis. As to the kind of experiment: Venturia test (apple)/protective. Conditions: 100 ppm; young apple plants sprayed; evaluation 10 days after inoculation. It is filed as in vivo. The protocol: as §3
To test for protective activity, young plants are sprayed with the active compound preparation at the stated application rate. After the spray coating has dried on, the plants are inoculated with an aqueous conidia suspension of the apple scab pathogen Venturia inaequalis and then remain in an incubation cabin at about 20° C. and 100% relative atmospheric humidity for 1 day. The plants are then placed in a greenhouse at about 21° C. and a relative atmospheric humidity of about 90%.
(§4) Evaluation is carried out 10 days after the inoculation. 0% means an efficacy which corresponds to that of the control, whereas an efficacy of 100% means that no infection is observed.

Data set [6] relates to Podosphaera leucotricha. As to the kind of experiment: Podosphaera test (apple)/protective. It is filed as in vivo. Conditions: 100 ppm; young apple plants sprayed; evaluation 10 days after inoculation. The protocol: as §3
To test for protective activity, young plants are sprayed with the active compound preparation at the stated application rate. After the spray coating has dried on, the plants are inoculated with an aqueous spore suspension of the apple mildew pathogen Podosphaera leucotricha. The plants are then placed in a greenhouse at about 23° C. and a relative atmospheric humidity of about 70%.
as §4

The test system of data set [7] is Sphaerotheca fuliginea. As to the kind of experiment: Sphaerotheca test (cucumber)/protective. It is filed as in vivo. Conditions: 500 ppm; young cucumber plants sprayed, inoculated one day after treatment; evaluation 7 days after inoculation. Here is the method:
as §1
To test for protective activity, young cucumber plants are sprayed with the active compound preparation at the stated application rate. One day after the treatment, the plants are inoculated with a spore suspension of Sphaerotheca fuliginea. The plants are then placed in a greenhouse at 70% relative atmospheric humidity and a temperature of 23° C.
as §2

Compound `O=C(Nc1ncncc1-c1ccc(Br)cc1)c1ccccc1I` [drawing 92] gave an Efficacy in % in data set [1] of 89%.

In data set [2], `O=C(Nc1ncncc1-c1ccc(Cl)c(Cl)c1)c1ccccc1C(F)(F)F` [Example 6] had a chromatographic logP of 2.92.

Take `O=C(Nc1ncncc1-c1ccc(OC(F)(F)F)cc1)c1ccccc1Cl` [drawing 89]: the pest or weed control at 500 ppm in data set [3] is 95%.

Consider `O=C(Nc1ncncc1-c1ccc(Cl)c(Cl)c1)c1ccccc1I` [drawing 80], for which the pest or weed control at 500 ppm in data set [3] stood at 100%.

In the case of `O=C(Nc1ncncc1-c1ccc(Cl)c(Cl)c1)c1ccccc1I` [drawing 101], the pest or weed control at 500 ppm in data set [4] stood at 96%.

For `O=C(Nc1ncncc1-c1ccc(Cl)c(Cl)c1)c1ccccc1C(F)(F)F` [drawing 98], the Efficacy in % in data set [5] is reported as 95%.

Regarding `O=C(Nc1ncncc1-c1ccc(Br)cc1)c1ccccc1I` [drawing 79], the pest or weed control at 500 ppm in data set [3] is 100%.

Regarding `O=C(c1ccccc1Cl)N(C(=O)c1ccccc1Cl)c1ncncc1-c1ccc(Br)cc1` [drawing 86], the pest or weed control at 500 ppm in data set [3] came to 71%.

In the case of `O=C(Nc1ncncc1-c1ccc(OC(F)(F)F)cc1)c1ccccc1I` [drawing 83], the pest or weed control at 500 ppm in data set [3] is 100%.

As for `O=C(Nc1ncncc1-c1ccc(Cl)c(Cl)c1)c1ccccc1I` [drawing 95], in data set [6], the Efficacy in % was 93%.

`O=C(Nc1ncncc1-c1ccc(Cl)c(Cl)c1)c1ccccc1Cl` [drawing 103]: the pest or weed control at 500 ppm in data set [4] was found to be 91%.

On to `O=C(c1ccccc1Cl)N(C(=O)c1ccccc1Cl)c1ncncc1-c1ccc(C(F)(F)F)cc1` [drawing 84], for which, in data set [3], the pest or weed control at 500 ppm came out at 100%.

As to `Cn1cc(C(=O)Nc2ncncc2-c2ccc(Cl)c(Cl)c2)c(C(F)(F)F)n1` [drawing 90], in data set [3], the pest or weed control at 500 ppm was 95%.

Take `O=C(Nc1ncncc1-c1ccc(Cl)c(Cl)c1)c1ccccc1Cl` [Example 10]: in data set [2], the chromatographic logP was determined as 2.73.

Consider `Cn1cc(C(=O)Nc2ncncc2-c2ccc(Cl)c(Cl)c2)c(C(F)(F)F)n1` [Example 19], for which the chromatographic logP in data set [2] was 2.46.

`O=C(c1ccccc1Cl)N(C(=O)c1ccccc1Cl)c1ncncc1-c1ccc(C(F)(F)F)cc1` [Example 12] had a chromatographic logP in data set [2] of 4.12.

For `O=C(Nc1ncncc1-c1ccc(Br)cc1)c1ccccc1Cl` [drawing 81], the pest or weed control at 500 ppm in data set [3] was determined as 100%.

Consider `O=C(Nc1ncncc1-c1ccc(Cl)c(Cl)c1)c1ccccc1I` [drawing 74], for which the Efficacy in % in data set [7] turned out to be 100%.

`O=C(Nc1ncncc1-c1ccc(Cl)c(Cl)c1)c1ccccc1I` [drawing 93] had an Efficacy in % in data set [1] of 100%.

As for `O=C(Nc1ncncc1-c1ccc(Cl)c(Cl)c1)c1ccccc1C(F)(F)F` [drawing 100], the pest or weed control at 500 ppm in data set [4] came to 80%.

As for `O=C(Nc1ncncc1-c1ccc(OC(F)(F)F)cc1)c1ccccc1I` [drawing 104], in data set [4], the pest or weed control at 500 ppm turned out to be 89%.

With `O=C(Nc1ncncc1-c1ccc(OC(F)(F)F)cc1)c1ccccc1I` [drawing 76], the Efficacy in % in data set [7] came to 95%.

As for `O=C(Nc1ncncc1-c1ccc(Cl)cc1)c1ccccc1C(F)(F)F` [drawing 78], the pest or weed control at 500 ppm in data set [3] was 100%.

As to `Cc1ccsc1C(=O)Nc1ncncc1-c1ccc(OC(F)(F)F)cc1`, in data set [3], the pest or weed control at 500 ppm was 70%.

The compound `Nc1ncncc1-c1ccc(Cl)c(Cl)c1` [III-1, 5-(3,4-dichlorophenyl)-4-pyrimidinylamine] showed a chromatographic logP in data set [2] of 0.87.

Compound `Cc1nc(C(F)(F)F)c(C(=O)Nc2ncncc2-c2ccc(Cl)c(Cl)c2)s1` [Example 2, N-[5-(3,4-dichlorophenyl)-4-pyrimidinyl]-2-methyl-4-(trifluoromethyl)-1,3-thiazole-5-carboxamide] showed a chromatographic logP in data set [2] of 2.85.

Consider `O=C(Nc1ncncc1-c1ccc(C(F)(F)F)cc1)c1ccccc1Cl` [drawing 105], for which, in data set [4], the pest or weed control at 500 ppm came to 100%.

Regarding `O=C(c1ccccc1Cl)N(C(=O)c1ccccc1Cl)c1ncncc1-c1ccc(OC(F)(F)F)cc1`, the pest or weed control at 500 ppm in data set [3] amounted to 70%.

Consider `O=C(c1ccccc1Cl)N(C(=O)c1ccccc1Cl)c1ncncc1-c1ccc(Cl)c(Cl)c1` [drawing 87], for which the pest or weed control at 500 ppm in data set [3] turned out to be 95%.

In data set [7], `O=C(Nc1ncncc1-c1ccc(Br)cc1)c1ccccc1I` [drawing 73] had an Efficacy in % of 95%.

In data set [6], `O=C(Nc1ncncc1-c1ccc(Br)cc1)c1ccccc1I` [drawing 94] showed an Efficacy in % of 87%.

As for `O=C(Nc1ncncc1-c1ccc(Br)cc1)c1ccccc1Cl` [Example 9], in data set [2], the chromatographic logP was 2.46.

As for `O=C(Nc1ncncc1-c1ccc(Cl)c(Cl)c1)c1ccccc1Cl` [drawing 82], the pest or weed control at 500 ppm in data set [3] came out at 100%.

The compound `Cc1nc(C(F)(F)F)c(C(=O)Nc2ncncc2-c2ccc(Cl)c(Cl)c2)s1` [drawing 97] had an Efficacy in % in data set [5] of 95%.

Regarding `O=C(Nc1ncncc1-c1ccc(Cl)c(Cl)c1)c1ccccc1I` [Example 8], in data set [2], the chromatographic logP amounted to 2.89.

In data set [2], `O=C(c1ccccc1Cl)N(C(=O)c1ccccc1Cl)c1ncncc1-c1ccc(Cl)c(Cl)c1` [Example 15] yielded a chromatographic logP of 2.46.

In the case of `O=C(Nc1ncncc1-c1ccc(Br)cc1)c1ccccc1Cl` [drawing 102], in data set [4], the pest or weed control at 500 ppm stood at 99%.

Compound `O=C(Nc1ncncc1-c1ccc(C(F)(F)F)cc1)c1ccccc1Cl` [drawing 96] gave an Efficacy in % in data set [6] of 93%.

For the compound `O=C(Nc1ncncc1-c1ccc(C(F)(F)F)cc1)c1ccccc1Cl` [Example 13], the chromatographic logP in data set [2] was found to be 2.62.

For `O=C(Nc1ncncc1-c1ccc(OC(F)(F)F)cc1)c1ccccc1Cl` [drawing 106], the pest or weed control at 500 ppm in data set [4] stood at 79%.

Take `O=C(Nc1ncncc1-c1ccc(Cl)c(Cl)c1)c1ccccc1Cl` [drawing 75]: the Efficacy in % in data set [7] is reported as 90%.

`O=C(Nc1ncncc1-c1ccc(Cl)cc1)c1ccccc1C(F)(F)F` [drawing 72] came in with an Efficacy in % in data set [7] of 78%.

In data set [2], `O=C(Nc1ncncc1-c1ccc(Br)cc1)c1ccccc1I` [Example 7] had a chromatographic logP of 2.61.

On to `O=C(Nc1ncncc1-c1ccc(C(F)(F)F)cc1)c1ccccc1Cl` [drawing 85], for which the pest or weed control at 500 ppm in data set [3] was 100%.

Consider `Cc1nc(C(F)(F)F)c(C(=O)Nc2ncncc2-c2ccc(Cl)c(Cl)c2)s1` [drawing 99], for which the pest or weed control at 500 ppm in data set [4] is 91%.

`Cn1cc(C(=O)Nc2ncncc2-c2ccc(Cl)c(Cl)c2)c(C(F)(F)F)n1` [drawing 77]: in data set [7], the Efficacy in % stood at 95%.

Take `O=C(Nc1ncncc1-c1ccc(Cl)cc1)c1ccccc1C(F)(F)F` [Example 1, N-[5-(4-chlorophenyl)-4-pyrimidinyl]-2-(trifluoromethyl)benzamide]: the chromatographic logP in data set [2] was 2.57.

On to `O=C(c1ccccc1Cl)N(C(=O)c1ccccc1Cl)c1ncncc1-c1ccc(Br)cc1` [Example 14], for which, in data set [2], the chromatographic logP is 2.73.
